We go through 1 substance from paper PMC12326976 (Antimicrobial Agents and Chemotherapy, 2025).

Bridge positions count the residues as written; N and C are the ends. Ends that are not written are not given here. I, II: the chains in the order shown.

For series [1] the following is noted: mouse, in vivo; cited from earlier work.
The test system of series [2] is rhinovirus A16. Put plainly: Rhinovirus A16 in H1-Hela cells. Conditions: 4H30 25 μg mL^−1, viral RNA copies in cells at 16 hpi, Fig. S6b. It counts as cell-based. Here is the method:
(§1) Fig. S6. […] H1-Hela cells are the standard cell model for efficient Rhinovirus A16 (RV-A16) replication. RV-A1 (a) or RV-A16 (b) was treated with 4H30 (25 μg mL^−1) for one hour of infection and then the infectious media were replaced with MEM with 4H30 for viral culture. Viral RNA copies in cells were measured at 16 hpi. Virus in MEM was the control. No viral infection was the mock control. Data are presented as mean ± SD of indicated biological samples.

The test system of series [3] is A(H1N1)pdm09 virus. Also noted: species or system BALB/c mice. To be noted: mouse, in vivo.
Series [4] relates to rhinovirus A1. Put plainly: Viral attachment assay, rhinovirus A1 on RD cells. It is filed as cell-based. Conditions: virus treated with 4H30, attachment at 4°C, Fig. 4d. The protocol: Viruses (H1N1 or rhinovirus A1) were treated with DMEM, 4H30 (25 µg mL^−1), or an influenza neutralization antibody at room temperature for 30 min and then added to cells for attachment at 4°C for 1 h. After washing the unbound virus, the attached virus on cells was measured by RT-qPCR. At least two experiments with biological duplication samples were included for each treatment.

The subject of series [5] is H3N2 virus. Put plainly: Plaque assay, H3N2 in MDCK cells. Conditions: plaque number normalized to untreated virus, Fig. S2. It is filed as cell-based, influenza H3N2 virus. Here is the method:
(§2) The antiviral activity of peptides was measured by plaque reduction assay. Briefly, peptides were dissolved in PBS or 20% PBS. Peptides (0.2-25.0 µg mL^−1) were premixed with H1N1 virus at room temperature. After 30 min of incubation, the peptide-virus mixture was transferred to MDCK cells for infection at 37°C. At 1 hpi, infectious media were removed, and then 1% low melting agar was added to cells. Cells were fixed using 4% formalin at 2–3 dpi. […] (0.1%) was added to cells for cell staining to count viral plaques.
Fig. S2. The antiviral activity of 4H30 against H3N2 virus in MDCK cells. H3N2 virus was treated with the indicated concentrations of 4H30 to infect MDCK cells. The percentage (%) was the plaque number of virus treated with 4H30 normalized to virus without treatment (0).

Series [6] relates to HA-mediated cell-cell fusion (pH7N7-HA). To be noted: 125 µg mL^−1, 293T cells, pH 5.0, Fig. 2b.
Series [7] deals with rhinovirus A1. It counts as cell-based.
Series [8] has as its system NA. Kind of series: ELISA binding assay, NA. On the set-up: species or system influenza virus. To be noted: 4H30 1 µg coated, NA 100 ng, anti-His antibody, Fig. 2a. Here is the method: Peptides (1.0 µg per well) were dissolved in H2O. Influenza HA, NA (Sino, Cat^# 11058-V07B), or LDLR (Sino, Cat^# 10231-H081-50, 100 ng) dissolved in PBS was coated onto ELISA plates, incubated at 4°C overnight, and blocked with BSA at 4°C overnight. HA or VP1 was added to wells for binding and then determined by incubation with goat anti-His-HRP (Invitrogen, Cat^# R93125, 1: 2,000) at 37°C for 30 min. The reaction was developed by adding 100 µL of the TMB single solution (Life Technologies, Cat^# 002023) for 15 min at 37°C and stopped with 50 µL of 1 M H2SO4. Readings were obtained in an ELISA plate reader (Victor 1420 Multilabel Counter; PerkinElmer) at 450 nm.

Series [9] deals with H1N1 virus. Put plainly: Plaque reduction assay, H1N1 in MDCK cells. To be noted: virus treated with 4H30 50 µg mL^−1, then diluted to 0.05 µg mL^−1 for plaque assay, Fig. 1e. It is filed as cell-based, influenza A/Hong Kong/415742/2009 (H1N1). The protocol: as §2
(Plaque reduction counts the foci of infection that form in a cell layer.)

The subject of series [10] is rhinovirus A1. Kind of series: Rhinovirus A1 in H1-Hela cells. It counts as cell-based. To be noted: 4H30 25 μg mL^−1, viral RNA copies in cells at 16 hpi, Fig. S6a. Here is the method:
as §1

Series [11] relates to rhinovirus A1. It is filed as cell-based. This is another data set of the same source.
The subject of series [12] is H1N1 virus. It counts as cell-based, influenza H1N1 virus.
The subject of series [13] is H1N1 virus. It is filed as cell-based, influenza H1N1 virus. The source holds these as a separate data set.
Series [14] concerns rhinovirus A1. Put plainly: Anti-rhinovirus assay in cardiomyocytes (hIPSC-CMs). It counts as cell-based. Conditions: 4H30 25 µg mL^−1; supernatants at 48 hpi; compared to DMEM- and P9RS-treated controls; Fig. 5d. From the text:
Cardiomyocytes are generated from human-induced pluripotent stem cells (iPSCs) as we had previously published ([22], [23]). Initially, IMR90 iPSCs are maintained in 12-well plates pre-coated with Matrigel (Thermo Fisher Scientific, USA) using StemFlex Medium (Thermo Fisher Scientific, USA). Subsequently, differentiation into cardiomyocytes is induced with the STEMdiff Ventricular Cardiomyocyte Differentiation Kit (Stem Cell Technologies, USA). This involves the sequential addition of Supplement A from days 1 to 2, Supplement B from days 3 to 4, and Supplement C from days 5 to 8 to cardiomyocyte differentiation basal medium. From day 9 onward, cardiomyocytes are sustained in cardiomyocyte maintenance basal medium with supplement (Stem Cell Technologies, USA). Lactate purification of cardiomyocytes is performed on days 11 to 12. Standard immunofluorescence staining with α-actinin and electrophysiology analysis by the patch clamping technique was performed to confirm their cardiomyocyte phenotype. To infect the cells, Rhinovirus A1 (0.025 TCID50) was treated with or without peptide in the media for infection. […]
Fig 5 4H30 inhibited rhinovirus replication in nasal organoids and cardiomyocytes. […] Viral RNAs were measured on day 1, day 2, and day 3 post-infection. […] Viral RNAs in the cell supernatants were measured by RT-qPCR at the indicated time points. […]

In series [15] the test system is rhinovirus A1. It is filed as cell-based. This is another data set of the same source.

For the substance “I: GAICHPVFCPRRYKQIGTCGLPGTKCCKKPKK / II: GAICHPVFCPRRYKQIGTCGLPGTKCCKKPK / III: GAICHPVFCPRRYKQIGTCGLPGTKCCKKP / IV: GAICHPVFCPRRYKQIGTCGLPGTKCCKKP (amide I:31-IV:C, I:32-II:C, II:31-III:C; cysteines drawn unpaired) [4H30]”, the toxicity in mice entry in series [1] is “without causing apparent toxicity”. For the same substance, the “inhibition of rhinovirus A16 in H1-Hela cells” value in [2] was “did not show antiviral activity against rhinovirus A16”. Further, the “survival of mice after lethal H1N1 challenge (protected mice)” value in series [3] is given as 5/6. In addition, in series [3] (0.5 mg/kg), the “body weight loss of H1N1-infected mice” value is recorded as “significantly reduced body weight loss” and the “viral loads in the lungs on day 2 post-infection” value was “significantly inhibited H1N1 viral replication in mouse lungs”. For the same substance, the “rhinovirus attachment to RD cells” value in series [4] is recorded as “reduced rhinovirus attachment to RD cells”. The “inhibition of H3N2 virus infection” value in series [5] is listed as “significantly inhibited group 2 influenza H3N2 virus infection”. Moreover, the “inhibition of HA-mediated cell-cell fusion induced by low pH” value in series [6] is recorded as “did not effectively block HA-mediated cell-cell fusion”. In addition, the rhinovirus entry result in series [7] was “blocked rhinovirus entry on the cell membrane”. Further, the “binding to NA” value in [8] was “not effectively bound to NA”. Further, the “antiviral activity after treating virus and 1,000-fold dilution” value in series [9] was “displayed significant antiviral activity against the virus”. The “inhibition of rhinovirus A1 in H1-Hela cells” value in series [10] is listed as “inhibited rhinovirus A1 in H1-Hela cells”. Moreover, in [11], the “rhinovirus release from RD cells” value is given as “did not inhibit viral release”. Also, in [12], the “H1N1 replication, cells treated before and after infection (1h-Pre, 1h-Post)” value was “did not show significant antiviral activity when cells were treated before and after viral infection”; the “H1N1 replication, virus treated before infection” value was “inhibited viral replication when the virus was treated with 4H30 before viral infection”. Also, the “H1N1 entry into cells” value in series [13] was “prevented viral entry into cells”. Also, in series [14], the “rhinovirus replication in hIPSC-CMs” value is listed as “significantly inhibited viral replication in hIPSC-CMs”. Further, in series [15], the “RV-A1 replication, cells (1h-Pre) or virus (Pre-mix) treated before infection” value was “significantly inhibited viral replication when cells or viruses were treated with 4H30 before viral infection”; the “RV-A1 replication, cells treated after infection (1h-Post and 2h-Post)” value is reported as “showed reduced antiviral activity when cells were treated after viral infection”; the “antiviral activity after treating rhinovirus and dilution” value is listed as “did not show antiviral activity against rhinovirus”; the “antiviral activity when added after virus attachment (4H30-Post)” value is “antiviral activity diminished when rhinovirus was attached to cells at 4 °C and was treated with 4H30 at 1 hpi”. The “antiviral activity when present during viral infection (4H30-Pre)” value in series [15] is “showed significant antiviral activity when treating virus during viral infection”.
